Assay results from patent US20240279226A1, “ERGOLINE-DERIVED AGONISTS OF THE 5-HT2A RECEPTOR” (priority 2021, published 2024).
pIC50: −log10 of the molar value.

Key:
5-HT2A receptor = 5-HT2A receptor (Homo sapiens (Human), UniProt P28223); assay: biochemical; assay type: binding; details: radioligand [3H]-ketanserin, cell membrane, 27° C. 90 min
Procedure: Compound binding was calculated as a % inhibition of the binding of a radioactively labeled ligand specific for each receptor. Results with inhibition >50% were considered to represent significant effects. In each experiment, the respective reference compound was tested in parallel with the test compounds, and the data were compared with previous values determined at Eurofins.
Bovine Serum Albumin (BSA), calcium chloride (CaCl2)), and polyethylenimine, branched (PEI) were purchased from Sigma. Tris(hydroxymethl)aminomethane (Tris) was purchased from Alfa Aesar.
Microbeta^2 microplate counter, MicroBeta Filtermate-96, and UniFilter-96 GF/C were purchased from PerkinElmer. TopSeal was purchased from Biotss. Seven Compact pH meter was purchased from Mettler Toledo. Ultrapure water meter was purchased from Sichuan Ulupure. Benchtop Centrifuge was purchased from Hunan Xiangyi. Microplate shaker was purchased from Allsheng. 384-Well Polypropylene Microplate was purchased from Labcyte. 96 round well plate was purchased from Corning. 96 round deep well plate was purchased from Axygen. Echo was purchased from LABCYTE. • 1. Prepare the assay buffer following the table below:
• 2. […] Read the plate by using a Microbeta^2 microplate counter.
• 11. […] The IC50 is determined by fitting percentage of inhibition function of compound concentrations with Hill equation using XLfit.

5-HT2C receptor = 5-HT2C receptor (Homo sapiens (Human), UniProt P28335); assay: biochemical; assay type: binding; details: radioligand [3H]-Mesulergine, cell membrane, 27° C. 60 min
Chain of 5-HT2C receptor (P28335 33-458 limits assumed): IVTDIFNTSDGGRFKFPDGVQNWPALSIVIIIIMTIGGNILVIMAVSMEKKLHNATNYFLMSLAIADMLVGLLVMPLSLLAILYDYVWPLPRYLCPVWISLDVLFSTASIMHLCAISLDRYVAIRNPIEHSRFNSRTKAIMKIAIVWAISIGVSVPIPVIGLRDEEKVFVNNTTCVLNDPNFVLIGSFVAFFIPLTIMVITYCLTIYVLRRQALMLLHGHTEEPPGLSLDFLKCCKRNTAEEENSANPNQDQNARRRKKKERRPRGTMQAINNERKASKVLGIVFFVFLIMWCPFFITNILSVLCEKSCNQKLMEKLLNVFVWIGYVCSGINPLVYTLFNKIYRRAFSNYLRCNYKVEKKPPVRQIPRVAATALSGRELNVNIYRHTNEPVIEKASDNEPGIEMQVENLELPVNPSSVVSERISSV

Row | SMILES | pIC50 (5-HT2A receptor) | pIC50 (5-HT2C receptor)
1 | [2H]C([2H])([2H])N1C[C@@H](NC(=O)N(CC)OC)C=C2c3cccc4[nH]cc(c34)C[C@H]21 [Example 6a, 1-ethyl-1-methoxy-3-((6aR,9S)-7-(methyl-d3)-4,6,6a,7,8,9-hexahydroindolo[4,3-fg]quinolin-9-yl)urea] | 8.59 | 7.02
2 | [2H]C([2H])([2H])N1C[C@H](NC(=O)N(CC)OC)C=C2c3cccc4[nH]cc(c34)C[C@H]21 [Example 6b, 1-ethyl-1-methoxy-3-((6aR,9R)-7-(methyl-d3)-4,6,6a,7,8,9-hexahydroindolo[4,3-fg]quinolin-9-yl) urea] | 8.19 | 6.51
